Experimental data: US8236761B2, “C-Met receptor regulation by angiotensin IV (AT4) receptor ligands” (Washington State University Research Foundation, priority 2006, dated 2012)
Non-standard residues stand in square brackets, D forms with d. No end group written: not given here. Nle = CCCC[C@H](N)C(=O)O

Key:
neovascularization = experiment: Disc angiogenesis assay (subcutaneous sponge disc); assay type: in vivo, Sprague Dawley rats; conditions: 50 μg per disc core, 14 days, rat
Protocol: FIG. 19 depicts effects on angiogenesis of angiotensin-like factors in a rat in vivo disc angiogenesis assay. Vascularization was quantified by digital image analysis of fixed and stained discs recovered from animals 14 days after subcutaneous implantation of sponge discs containing the indicated compounds.
Disc Angiogenesis Assay. […] A 2 mm core was removed from the center of each disc, saturated with 50 μg of Nle^1-AngIV (SEQ ID NO:41), Nle^1-Leu^3-Ψ(CH2NH2)^3-4-AngIV, Hexamide, or ethanol (control), air dried, then sealed using a fixative (Elvax, DuPont) to allow sustained delivery of the drug treatment into the disc and adjacent tissues. The cores were dried for 30 min, then reinserted into the sponge discs. Impermeable top and bottom covers were prepared by coating 10 mm diameter paper discs with a plexiglass coating, then glued to the top and bottom of the sponge discs, leaving only the rim of the disc available for centripetal cellular penetration. Just prior to implantation, the discs were soaked briefly in sterile saline.
Thirty-two Sprague Dawley female rats (225-275 gr) were used to evaluate four compounds for angiogenic or anti-angiogenic properties using the disc angiogenesis assay. Animals were anesthetized using sodium pentobarbital (40 mg/kg IP). The dorsum was then shaved and aseptically prepped. Each animal received four discs. Animals receiving treated discs were implanted with 2 treated discs and 2 ethanol-soaked control discs. Thus, in a group of 4 animals there were 8 treatment discs, and 8 control discs. These control discs were used to determine whether the ligand had potential systemic effects. Another group of 4 animals received only ethanol-soaked control discs (spontaneous growth controls or SGC discs) for an n=16. However, one SGC was fragmented during processing leaving an n=15.
Four 2 cm cutaneous incisions were made along the dorsum (left thoracic, right thoracolumbar, left thoracolumbar, and right lumbar), and subcutaneous pouches opened in the fascia using blunt dissection. Discs were moistened in sterile saline, inserted deep to the pouch, and the skin closed with sterile surgical staples. Animals were recovered under heat lamps until sternally recumbent, then individually housed for 14 days in an AAALAC accredited facility (water and food ad libitum; 12/12 hour light cycle).
After 14 days the animals were euthanized in a CO2 chamber and the discs were removed. […] Cellular penetration into the discs was quantified using a digital imaging system (Imaging Research Inc., St. Catharines, Ontario, Canada). The total area of the disc was calculated, as was the area containing stained cells. […]
Results. Following staining with toludine blue or Factor VIII, neovascularization was quantitated by densitometry.

human endothelial cells = experiment: Proliferation and migration of human endothelial cells; assay type: cell-based
c-Met [1] = biological target: T1, c-Met (Homo sapiens, UniProt P08581); experiment: Tyrosine kinase receptor protein array in HUVECs; assay type: cell-based; set-up: endogenous in cells; host or cells: HUVEC; conditions: HUVECs treated for 5 minutes
Protocol: Screening of a ligand for its ability to inhibit c-Met receptor phosphorylation was tested by tyrosine kinase receptor protein array. Briefly, human umbilical vein endothelial cells (HUVECs) grown to confluence were treated for 5 minutes with COMPOUND 2 (SEQ ID NO:43). Cells were then lysed and total protein collected.
Target sequence in this assay (P08581 25-1390): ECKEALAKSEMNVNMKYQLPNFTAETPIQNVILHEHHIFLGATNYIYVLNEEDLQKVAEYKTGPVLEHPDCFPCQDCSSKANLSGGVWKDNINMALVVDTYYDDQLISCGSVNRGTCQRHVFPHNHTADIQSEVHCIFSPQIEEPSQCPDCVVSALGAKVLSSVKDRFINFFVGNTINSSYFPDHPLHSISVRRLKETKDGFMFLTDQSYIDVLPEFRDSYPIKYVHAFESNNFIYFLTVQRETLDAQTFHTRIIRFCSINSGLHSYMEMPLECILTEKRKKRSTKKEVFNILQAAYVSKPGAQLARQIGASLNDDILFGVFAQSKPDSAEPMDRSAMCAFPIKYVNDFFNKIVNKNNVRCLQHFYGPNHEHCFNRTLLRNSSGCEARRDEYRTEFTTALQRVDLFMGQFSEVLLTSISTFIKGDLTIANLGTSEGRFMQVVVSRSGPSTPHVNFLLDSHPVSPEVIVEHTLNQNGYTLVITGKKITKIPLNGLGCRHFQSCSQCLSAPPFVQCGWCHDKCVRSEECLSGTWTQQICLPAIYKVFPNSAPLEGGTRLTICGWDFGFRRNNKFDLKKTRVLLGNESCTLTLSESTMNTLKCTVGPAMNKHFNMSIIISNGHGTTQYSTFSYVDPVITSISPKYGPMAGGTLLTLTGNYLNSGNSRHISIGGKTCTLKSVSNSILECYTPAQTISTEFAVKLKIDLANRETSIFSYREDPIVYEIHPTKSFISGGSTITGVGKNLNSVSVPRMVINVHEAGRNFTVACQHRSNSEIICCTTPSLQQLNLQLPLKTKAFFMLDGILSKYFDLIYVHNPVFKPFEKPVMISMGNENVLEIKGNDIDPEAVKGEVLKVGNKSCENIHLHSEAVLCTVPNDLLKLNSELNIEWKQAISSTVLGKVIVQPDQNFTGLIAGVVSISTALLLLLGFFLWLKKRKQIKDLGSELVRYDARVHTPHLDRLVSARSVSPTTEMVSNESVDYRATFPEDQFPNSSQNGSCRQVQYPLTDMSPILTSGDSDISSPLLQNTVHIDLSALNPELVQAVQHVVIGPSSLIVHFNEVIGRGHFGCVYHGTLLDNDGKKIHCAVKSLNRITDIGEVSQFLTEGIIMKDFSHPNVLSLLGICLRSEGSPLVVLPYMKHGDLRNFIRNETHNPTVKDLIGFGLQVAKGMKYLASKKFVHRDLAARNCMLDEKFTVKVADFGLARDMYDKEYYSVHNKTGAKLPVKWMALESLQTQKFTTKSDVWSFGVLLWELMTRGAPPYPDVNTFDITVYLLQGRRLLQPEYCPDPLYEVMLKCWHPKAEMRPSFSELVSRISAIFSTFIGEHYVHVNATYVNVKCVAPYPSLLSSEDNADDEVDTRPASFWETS

c-Met [2] = biological target: T1, c-Met; experiment: HGF-induced Met/Gab1 association in HUVEC (IP/IB); assay type: cell-based; conditions: 5 minutes treatment
Protocol: (§1) FIG. 16 depicts inhibition of angiogenesis by Norleual (Compound 2, SEQ ID NO:43) in the mouse aortic ring assay. Rings were incubated in EGM-2 media (Cambrex) with (n=8) or without (n=6) 100 pM Norleual for four days. Digital photos of the rings were taken on day four. FIG. 16A: Quantification of aortic ring angiogenesis. Areas covered by angiogenic sprouts were quantified from day four ring photos, control (−) and Norelual treated (+) (p-value=0.012* and error bars indicate ±SEM). FIG. 16B: HUVECs were treated for 5 minutes with HGF and/or Norleual at indicated concentrations. Lysates were IP with anti-c-Met and IB with anti-c-Met or Gab1.
Immunoprecipitation and Western blotting. Cells were serum starved for two hours in DMEM before treatment. Cells were harvested using RIPA lysis buffer (Upstate Biotechnol. Inc., Lake Placid, N.Y.) with phosphatase inhibitor cocktails 1 and 2 (Sigma, St Louis, Mo., USA). Protein concentration was determined using the BCA assay (Pierce, Rockford, Ill., USA). Lysates were incubated with antibody overnight at 4° C. Immunoprecipitation controls received mouse non-specific Ig (Upstate). […] The film images were digitized and analyzed using TotalLab® software (AmershamPharmacia/GE HealthCare, Piscataway, N.J.).
(§2) See Example 1 for Materials and Methods. Angiogenesis was evaluated with the ex vivo mouse aortic ring assay in the presence and absence of Norleual. […]
Target sequence in this assay (P08581 308-1390 limits assumed): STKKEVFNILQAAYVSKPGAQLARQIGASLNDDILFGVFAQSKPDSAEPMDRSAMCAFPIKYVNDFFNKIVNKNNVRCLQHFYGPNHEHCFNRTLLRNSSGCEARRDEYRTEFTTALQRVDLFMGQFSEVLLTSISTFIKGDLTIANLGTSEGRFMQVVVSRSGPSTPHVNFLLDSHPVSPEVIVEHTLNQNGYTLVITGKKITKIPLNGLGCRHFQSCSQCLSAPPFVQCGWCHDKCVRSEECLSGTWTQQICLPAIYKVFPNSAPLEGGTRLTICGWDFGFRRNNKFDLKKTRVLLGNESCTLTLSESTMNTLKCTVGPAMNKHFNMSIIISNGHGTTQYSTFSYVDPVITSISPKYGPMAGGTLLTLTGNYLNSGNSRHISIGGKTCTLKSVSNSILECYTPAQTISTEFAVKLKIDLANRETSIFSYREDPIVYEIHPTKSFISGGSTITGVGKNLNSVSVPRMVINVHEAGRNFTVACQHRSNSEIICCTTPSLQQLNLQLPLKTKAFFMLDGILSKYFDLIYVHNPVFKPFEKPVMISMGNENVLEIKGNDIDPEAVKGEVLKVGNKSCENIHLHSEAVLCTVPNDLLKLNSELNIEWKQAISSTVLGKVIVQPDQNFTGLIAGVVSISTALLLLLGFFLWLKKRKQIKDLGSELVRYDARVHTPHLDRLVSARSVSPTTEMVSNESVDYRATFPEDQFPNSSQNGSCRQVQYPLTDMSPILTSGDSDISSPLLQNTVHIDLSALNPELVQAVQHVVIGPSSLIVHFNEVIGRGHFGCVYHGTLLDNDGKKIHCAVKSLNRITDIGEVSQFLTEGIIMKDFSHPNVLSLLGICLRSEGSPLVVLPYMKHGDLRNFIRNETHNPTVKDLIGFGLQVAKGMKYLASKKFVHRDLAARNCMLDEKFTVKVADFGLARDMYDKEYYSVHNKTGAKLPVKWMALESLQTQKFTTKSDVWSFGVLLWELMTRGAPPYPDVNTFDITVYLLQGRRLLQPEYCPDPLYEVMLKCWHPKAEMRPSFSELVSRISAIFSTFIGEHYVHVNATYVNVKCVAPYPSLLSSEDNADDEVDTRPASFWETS
Target sequence in this assay (P08581 25-307 limits assumed): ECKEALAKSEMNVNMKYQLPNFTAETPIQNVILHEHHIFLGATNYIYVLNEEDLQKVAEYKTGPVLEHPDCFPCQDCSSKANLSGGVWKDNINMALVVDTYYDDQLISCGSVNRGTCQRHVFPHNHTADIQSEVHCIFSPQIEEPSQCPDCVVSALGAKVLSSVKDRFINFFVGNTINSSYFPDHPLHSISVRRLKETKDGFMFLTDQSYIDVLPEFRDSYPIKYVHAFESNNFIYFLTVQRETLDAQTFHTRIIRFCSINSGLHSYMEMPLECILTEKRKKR

[3] = tested on: aortic ring angiogenic sprouts; experiment: Ex vivo mouse aortic ring angiogenesis assay; conditions: 100 pM Norleual, four days, EGM-2
Protocol: as §1
Aortic ring assay. 48-well plates were coated with Growth Factor Reduced Matrigel (BD Biosciences, San Jose, Calif., USA, thick gel method). Under microscopic dissection, the thoracic aorta of a 6 week-old C57 mouse was cut into 0.5 mm sections, washed in PBS, and placed in the Matrigel-coated wells. […] Photos were taken and angiogenic area was measured using Image J (Image Processing and Data Analysis in Java, available from NIH, Bethesda, Md.). […]
as §2

[4] = tested on: B16-F10 murine melanoma cells; experiment: B16-F10 scratch wound closure assay; assay type: cell-based; conditions: six hours after scratch
Protocol: Scratch Assay. Confluent B16-F10 cells in 48 well plates were scratched with a 200 μl pipette tip. Wells were treated with vehicle, HGF, and/or Norleual. Photos were taken at various time points. Photos were graded by two investigators.
See Example 1 for Materials and Methods. Norleual was applied to HGF treated B16-F10 murine melanoma cells in a scratch wound assay. HGF accelerated the wound closure, however Norleual was able to attenuate HGF stimulated closure six hours after scratch (FIG. 11A).

## Nle-Tyr-Leu-ψ-His-Pro-Phe ([Nle]YLHPF; also: reduced peptide bond psi(CH2NH2) between Leu and His) [Norleual]
neovascularization
  Effect on angiogenesis in disc assay versus SGC discs: antagonist activity
Human endothelial cells
  Proliferation and migration of human endothelial cells: inhibited
c-Met [1]
  c-Met phosphorylation in receptor protein array: inhibited
c-Met [2]
  HGF-induced Met/Gab1 association in HUVEC: inhibited
[3]
  Angiogenic growth of aortic rings: significantly attenuated
[4]
  HGF stimulated scratch wound closure: attenuate
